Test results taken from the supplement of paper PMC11061612.

Legend:
Prexasertib = compound: COc1cccc(OCCCN)c1-c1cc(Nc2cnc(C#N)cn2)n[nH]1 [Prexasertib]; settings: max 1 µM
In short: (§1)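 Viability was measured with CellTiter-Glo 2.0 luminescence after 72 hours of dosing at a final DMSO of typically 0.2%, and scaled between blank-well and DMSO-well means. Beforehand, cancer cell lines sat 24 hours at 37°C and 5% CO2 in 1536-well plates in 7.5 μl DMEM/F12 or RPMI with 10% FBS. A non-linear mixed effects model fitted two-parameter logistic curves to the dose responses. The single-agent IC50 comes from these fits.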

AZD1775 = compound: C=CCn1c(=O)c2cnc(Nc3ccc(N4CCN(C)CC4)cc3)nc2n1-c1cccc(C(C)(C)O)n1 [AZD1775]; settings: max 3 µM
In short: as §1

AZD4320 = compound: CN(CC[C@H](CSC1=CC=CC=C1)NC2=C(C=C(C=C2)S(=O)(=O)NC(=O)C3=CC=C(C=C3)N4CCC(CC4)[C@H](C5=CC=CC=C5C6=CC=C(C=C6)Cl)O)S(=O)(=O)C(F)(F)F)CCO [AZD4320]; settings: max 1 µM
In short: as §1

SN-38 = compound: CCc1c2c(nc3ccc(O)cc13)-c1cc3c(c(=O)n1C2)COC(=O)[C@]3(O)CC [SN-38]; settings: max 0.3 µM
In short: as §1

Taselisib = compound: Cc1nc(-c2cn3c(n2)-c2ccc(-c4cnn(C(C)(C)C(N)=O)c4)cc2OCC3)n(C(C)C)n1 [Taselisib]; settings: max 10 µM
In short: as §1

Trametinib = compound: CC(=O)Nc1cccc(-n2c(=O)n(C3CC3)c(=O)c3c(Nc4ccc(I)cc4F)n(C)c(=O)c(C)c32)c1 [Trametinib]; settings: max 1 µM
In short: as §1

Doxorubicin = compound: COc1cccc2c1C(=O)c1c(O)c3c(c(O)c1C2=O)C[C@@](O)(C(=O)CO)C[C@@H]3O[C@H]1C[C@H](N)[C@H](O)[C@H](C)O1 [Doxorubicin]; settings: max 1 µM
In short: as §1

Alisertib = compound: COc1cc(Nc2ncc3c(n2)-c2ccc(Cl)cc2C(c2c(F)cccc2OC)=NC3)ccc1C(=O)O [Alisertib]; settings: max 10 µM
In short: as §1

AZD1390 = compound: CC(C)n1c(=O)n(C)c2cnc3cc(F)c(-c4ccc(OCCCN5CCCCC5)nc4)cc3c21 [AZD1390]; settings: max 0.3 µM
In short: as §1

Savolitinib = compound: C[C@@H](c1ccc2nccn2c1)n1nnc2ncc(-c3cnn(C)c3)nc21 [Savolitinib]; settings: max 1 µM
In short: as §1

AZD5991 = compound: Cc1c2c(nn1C)CSCc1cc(n(C)n1)CSc1cc(c3ccccc3c1)OCCCc1c(C(=O)O)n(C)c3c-2c(Cl)ccc13 [AZD5991]; settings: max 1 µM
In short: as §1

AZD5153 = compound: COc1nnc2ccc(N3CCC(c4ccc(OCCN5CCN(C)C(=O)[C@H]5C)cc4)CC3)nn12 [AZD5153]; settings: max 1 µM
In short: as §1

Dasatinib = compound: CC1=C(C(=CC=C1)Cl)NC(=O)C2=CN=C(S2)NC3=CC(=NC(=N3)C)N4CCN(CC4)CCO [Dasatinib]; settings: max 2 µM
In short: as §1

Olaparib = compound: O=C(c1cc(Cc2n[nH]c(=O)c3ccccc23)ccc1F)N1CCN(C(=O)C2CC2)CC1 [Olaparib]; settings: max 10 µM
In short: as §1

AZD6738 = compound: C[C@@H]1COCCN1C2=NC(=NC(=C2)C3(CC3)[S@](=N)(=O)C)C4=C5C=CNC5=NC=C4 [AZD6738]; settings: max 10 µM
In short: as §1

SG3199 = compound: CC1=CN2[C@@H](C1)C=NC3=CC(=C(C=C3C2=O)OC)OCCCCCOC4=C(C=C5C(=C4)N=C[C@@H]6CC(=CN6C5=O)C)OC [SG3199]; settings: max 0.001 µM
In short: as §1

AZD7648 = compound: Cc1cc2ncnn2cc1Nc1ncc2c(n1)n(C1CCOCC1)c(=O)n2C [AZD7648]; settings: max 10 µM
In short: as §1

AZD8186 = compound: C[C@@H](Nc1cc(F)cc(F)c1)c1cc(C(=O)N(C)C)cc2c(=O)cc(N3CCOCC3)oc12 [AZD8186]; settings: max 3 µM
In short: as §1

AZD2811 = compound: CCN(CCO)CCCOc1ccc2c(Nc3cc(CC(=O)Nc4cccc(F)c4)[nH]n3)ncnc2c1 [AZD2811]; settings: max 1 µM
In short: as §1

Selumetinib = compound: Cn1cnc2c(F)c(Nc3ccc(Br)cc3Cl)c(C(=O)NOCCO)cc21 [Selumetinib]; settings: max 10 µM
In short: as §1

Capivasertib = compound: C1CN(CCC1(C(=O)N[C@@H](CCO)C2=CC=C(C=C2)Cl)N)C3=NC=NC4=C3C=CN4 [Capivasertib]; settings: max 10 µM
In short: as §1

AZD0156 = compound: CN(C)CCCOc1ccc(-c2ccc3ncc4c(c3c2)n(C2CCOCC2)c(=O)n4C)cn1 [AZD0156]; settings: max 3 µM
In short: as §1

Palbociclib = compound: CC(=O)c1c(C)c2cnc(Nc3ccc(N4CCNCC4)cn3)nc2n(C2CCCC2)c1=O [Palbociclib]; settings: max 10 µM
In short: as §1

Lapatinib = compound: CS(=O)(=O)CCNCc1ccc(-c2ccc3ncnc(Nc4ccc(OCc5cccc(F)c5)c(Cl)c4)c3c2)o1 [Lapatinib]; settings: max 10 µM
In short: as §1

Venetoclax = compound: CC1(C)CCC(CN2CCN(c3ccc(C(=O)NS(=O)(=O)c4ccc(NCC5CCOCC5)c([N+](=O)[O-])c4)c(Oc4cnc5[nH]ccc5c4)c3)CC2)=C(c2ccc(Cl)cc2)C1 [Venetoclax]; settings: max 1 µM
In short: as §1

Gefitinib = compound: COc1cc2ncnc(Nc3ccc(F)c(Cl)c3)c2cc1OCCCN1CCOCC1 [Gefitinib]; settings: max 10 µM
In short: as §1

Crizotinib = compound: C[C@@H](Oc1cc(-c2cnn(C3CCNCC3)c2)cnc1N)c1c(Cl)ccc(F)c1Cl [Crizotinib]; settings: max 10 µM
In short: as §1

Cell Line	IC50, cell viability 72 h (Prexasertib) [nM]	IC50, cell viability 72 h (AZD1775) [nM]	IC50, cell viability 72 h (AZD4320) [nM]	IC50, cell viability 72 h (SN-38) [nM]	IC50, cell viability 72 h (Taselisib) [nM]	IC50, cell viability 72 h (Trametinib) [nM]	IC50, cell viability 72 h (Doxorubicin) [nM]	IC50, cell viability 72 h (Alisertib) [nM]	IC50, cell viability 72 h (AZD1390) [nM]	IC50, cell viability 72 h (Savolitinib) [nM]	IC50, cell viability 72 h (AZD5991) [nM]	IC50, cell viability 72 h (AZD5153) [nM]	IC50, cell viability 72 h (Dasatinib) [nM]	IC50, cell viability 72 h (Olaparib) [nM]	IC50, cell viability 72 h (AZD6738) [nM]	IC50, cell viability 72 h (SG3199) [nM]	IC50, cell viability 72 h (AZD7648) [nM]	IC50, cell viability 72 h (AZD8186) [nM]	IC50, cell viability 72 h (AZD2811) [nM]	IC50, cell viability 72 h (Selumetinib) [nM]	IC50, cell viability 72 h (Capivasertib) [nM]	IC50, cell viability 72 h (AZD0156) [nM]	IC50, cell viability 72 h (Palbociclib) [nM]	IC50, cell viability 72 h (Lapatinib) [nM]	IC50, cell viability 72 h (Venetoclax) [nM]	IC50, cell viability 72 h (Gefitinib) [nM]	IC50, cell viability 72 h (Crizotinib) [nM]
KM12 (Colorectal Carcinoma)	66.6	454	> 1000	90.8	7180	35.6	357	1110	> 300	> 1000	> 1000	287	> 2000	> 10000	5540	> 1	> 10000	> 3000	> 1000	1300	2280	> 3000	1170	> 10000	> 1000	> 10000	271
KYSE-180 (Esophageal Squamous Cell Carcinoma)	22.3	440	> 1000	> 300	4520	> 1000	> 1000	> 10000	> 300	> 1000	642	> 1000	1730	> 10000	5360	> 1	> 10000	> 3000	> 1000	> 10000	> 10000	> 3000	> 10000	> 10000	> 1000	> 10000	> 10000
LN-18 (Glioblastoma)	209	> 3000	> 1000	138	5680	> 1000	> 1000	1400	> 300	> 1000	> 1000	342	> 2000	> 10000	8830	> 1	> 10000	2530	> 1000	> 10000	> 10000	> 3000	> 10000	9520	> 1000	> 10000	> 10000
MEL-JUSO (Melanoma)	125	> 3000	> 1000	> 300	> 10000	430	> 1000	> 10000	> 300	> 1000	> 1000	> 1000	> 2000	> 10000	> 10000	> 1	> 10000	> 3000	> 1000	> 10000	> 10000	> 3000	> 10000	> 10000	> 1000	> 10000	> 10000
MFM-223 (Breast Carcinoma)	59.9	2300	> 1000	> 300	1160	> 1000	> 1000	633	> 300	> 1000	> 1000	> 1000	> 2000	> 10000	5200	> 1	> 10000	> 3000	> 1000	> 10000	1620	> 3000	> 10000	> 10000	> 1000	> 10000	> 10000
MOLT-16 (T-Lymphoblastic Leukemia)	11.2	168	16.3	2.33	1110	> 1000	46.7	29.1	> 300	> 1000	51.5	76.2	> 2000	5600	557	> 1	> 10000	> 3000	12.4	> 10000	811	> 3000	420	6350	308	> 10000	1770
MS751 (Cervical Carcinoma)	> 1000	1620	> 1000	36.8	> 10000	> 1000	> 1000	1130	> 300	> 1000	222	200	> 2000	> 10000	> 10000	> 1	> 10000	> 3000	> 1000	> 10000	> 10000	> 3000	> 10000	> 10000	> 1000	> 10000	> 10000
PANC-08-13 (Pancreatic Carcinoma)	460	> 3000	> 1000	> 300	6440	> 1000	> 1000	> 10000	> 300	> 1000	> 1000	350	> 2000	> 10000	> 10000	> 1	> 10000	> 3000	> 1000	> 10000	> 10000	> 3000	> 10000	> 10000	> 1000	> 10000	> 10000
SU-DHL-8 (B-Cell Non-Hodgkin's Lymphoma)	7.48	155	38.7	3.04	> 10000	> 1000	107	6600	> 300	> 1000	144	684	> 2000	> 10000	2060	> 1	> 10000	> 3000	> 1000	> 10000	> 10000	> 3000	> 10000	> 10000	> 1000	> 10000	> 10000
TOV-112D (Ovarian Carcinoma)	353	1260	> 1000	8.03	> 10000	> 1000	262	4320	> 300	> 1000	> 1000	298	> 2000	> 10000	6940	> 1	> 10000	> 3000	> 1000	> 10000	> 10000	> 3000	> 10000	> 10000	> 1000	> 10000	> 10000
